In ChEMBL document CHEMBL1125927, “New isomeric classes of topically active ocular hypotensive carbonic anhydrase inhibitors: 5-substituted thieno[2,3-b]thiophene-2-sulfonamides and 5-substituted thieno[3,2-b]thiophene-2-sulfonamides” (J Med Chem, 1991):
Values joined by “and” are separate entries in the source; they are usually repeats but may differ in a detail not shown here. Equal values may be shown once.

Key:
physchem [1] = conditions: octanol/water, pH 7.4
Description: Partition coefficient (logD7.4)

physchem [2] = experiment: physchem
Description: Dissociation constant (pKa)

Carbonic anhydrase 2 [3] = biological target: T1, Carbonic anhydrase 2 (Homo sapiens, UniProt P00918)
Description: In vitro inhibitory activity against human carbonic anhydrase II

Carbonic anhydrase 2 [4] = biological target: T1, Carbonic anhydrase 2; remark: listed apart in the source
Description: In vitro binding affinity against human carbonic anhydrase II

Oryctolagus cuniculus [5] = species: Oryctolagus cuniculus; experiment: Intraocular pressure studies were performed for the compound and compared with MK-927; format: functional; further: test concentration or dose not given here
Oryctolagus cuniculus [6] = species: Oryctolagus cuniculus; experiment: Intraocular pressure studies in normotensive albino rabbits was performed; format: functional; further: test concentration or dose not given here
Oryctolagus cuniculus [7] = species: Oryctolagus cuniculus; experiment: Intraocular pressure studies in normotensive pigmented rabbits was performed; format: functional; further: test concentration or dose not given here
Carbonic anhydrase 2 [8] = biological target: T1, Carbonic anhydrase 2; remark: listed apart in the source
Description: The compound was tested for in vitro binding affinity against human Carbonic anhydrase II

Carbonic anhydrase 2 [9] = biological target: T1, Carbonic anhydrase 2; remark: listed apart in the source
Description: The compound was tested for in vitro inhibitory activity against human Carbonic anhydrase II

Carbonic anhydrase 2 [10] = biological target: T1, Carbonic anhydrase 2; experiment: The compound was tested for in vitro inhibitory activity against human carbonic anhydrase II.; conditions: read-out: I50
Carbonic anhydrase 2 [11] = biological target: T1, Carbonic anhydrase 2; experiment: The compound was tested for in vitro inhibitory activity against human carbonic anhydrase II; conditions: read-out: I50
Oryctolagus cuniculus [12] = species: Oryctolagus cuniculus; experiment: Intraocular pressure studies in hypertensive pigmented rabbits was performed; format: functional; further: test concentration or dose not given here

Description for Bos taurus: The binding to bovine iris and ciliary body pigment

SMILES	Pigment binding (Bos taurus)	logD (physchem [1])	pKa (physchem [2])	IC50 (Carbonic anhydrase 2 [3])	Ki (Carbonic anhydrase 2 [4])	further results
COCCCNCc1cc2cc(S(N)(=O)=O)sc2s1.Cl	85.4%	0.204	7.52	4.9 nM		
COCCN(CCOC)Cc1cc2cc(S(N)(=O)=O)sc2s1.Cl	50%	1.58	5.34	4.2 nM	1.34 nM	IOP (Oryctolagus cuniculus [5]): -4.6 mmHg; IOP (Oryctolagus cuniculus [6]): -2.6 mmHg; IOP (Oryctolagus cuniculus [7]): -4.1 mmHg
OCc1cc2ccsc2s1						IOP (Oryctolagus cuniculus [6]): -3 mmHg
C[S+]([O-])CCNC(=O)c1cc2cc(S(N)(=O)=O)sc2s1 (centres undefined)	35.6%	-0.155		4.6 nM	2.39 nM	
Cl.NS(=O)(=O)c1cc2cc(CN3CCSCC3)sc2s1	69.9%	1.14	5.05	2.6 nM	0.44 nM	
CC(C=O)N(Cc1cc2cc(S(N)(=O)=O)sc2s1)C(C)C=O.Cl (centres undefined)	49.7%	1.17	5.75			Ki (Carbonic anhydrase 2 [8]): 1.49 nM; IC50 (Carbonic anhydrase 2 [9]): 2.71 nM
COCCNCc1cc2sc(S(N)(=O)=O)cc2s1.Cl	81.9%	0.509	6.65	2.8 nM	3.1 nM	
CC(C)(C)NCc1cc2cc(S(N)(=O)=O)sc2s1		-0.0757	8.28		36.8 nM	IC50 (Carbonic anhydrase 2 [10]): 10 nM
NCc1cc2cc(S(N)(=O)=O)sc2s1	92%		7.3	14 nM		
COCCOCCN(CCOC)C(C)c1cc2cc(S(N)(=O)=O)sc2s1 (centres undefined)				0.5 nM	1.54 nM	
Cl.NS(=O)(=O)c1cc2cc(CNCC(F)(F)F)sc2s1	21.1%		3.75	2.2 nM		
COCCNCc1cc2cc(S(N)(=O)=O)sc2s1.Cl	88%	0.324	7	5 nM	3.9 nM	
NS(=O)(=O)c1cc2cc(CNCC3CC3)sc2s1		0.398	7.72	3.3 nM	6.7 nM	
CNC(=O)c1cc2cc(S(N)(=O)=O)sc2s1			5.2			
NS(=O)(=O)c1cc2cc(C(=O)NCC(O)CO)sc2s1 (centres undefined)	36.7%	-0.347		3.2 nM	3.4 nM	
NS(=O)(=O)c1cc2cc(CNCCO)sc2s1		-0.721	7.18	6.3 nM		
Cl.NS(=O)(=O)c1cc2cc(C(=O)NCCN3CCSCC3)sc2s1	96.4%	1.5	6.03	2.9 nM	4.02 nM	
NS(=O)(=O)c1cc2cc(CNCCCCO)sc2s1		-0.678	7.7	3 nM		
Cl.NS(=O)(=O)c1cc2cc(CN(CCO)CCO)sc2s1	71.8%	0.23	5.5	2.27 nM	2.6 nM	
CC(C)CNCc1cc2sc(S(N)(=O)=O)cc2s1.Cl	86.5%	1.24	7.6	2.8 nM	2.7 nM	
COCCOCCN(CCOCCOC)Cc1cc2cc(S(N)(=O)=O)sc2s1.Cl	40.3%	0.992	5.72			Ki (Carbonic anhydrase 2 [8]): 2.77 nM; IC50 (Carbonic anhydrase 2 [9]): 3.95 nM

SMILES	Pigment binding (Bos taurus)	logD (physchem [1])	pKa (physchem [2])	IC50 (Carbonic anhydrase 2 [3])	Ki (Carbonic anhydrase 2 [4])	further results
CNCc1cc2sc(S(N)(=O)=O)cc2s1.Cl	87.3%	-0.495	7.65	3.2 nM	11.8 nM	
COCCOCCNC(C)c1cc2cc(S(N)(=O)=O)sc2s1.Cl (centres undefined)	71.9%	0.708	7.13		3.05 nM	IC50 (Carbonic anhydrase 2 [11]): 0.7 nM
CNCc1cc2cc(S(N)(=O)=O)sc2s1.Cl	92.1%	-0.538	8.02	3 nM		Ki (Carbonic anhydrase 2 [8]): 20.9 nM
COCCOCCN(CCOC)Cc1cc2cc(S(N)(=O)=O)sc2s1.Cl	38.5%	1.14	5.55	2.8 nM	1.58 nM	IOP (Oryctolagus cuniculus [5]): -5.3 mmHg; IOP (Oryctolagus cuniculus [6]): -3.3 mmHg; IOP (Oryctolagus cuniculus [12]): -4.4 mmHg; IOP (Oryctolagus cuniculus [7]): -4.8 mmHg
Cl.NS(=O)(=O)c1cc2cc(CN3CCOCC3)sc2s1	42.9%	1.17	5.25	3 nM	1.1 nM	
Cl.NS(=O)(=O)c1cc2cc(C(=O)NCCN3CCOCC3)sc2s1	91.6%	0.587	5.8	2.9 nM	6.38 nM	
Cl.NS(=O)(=O)c1cc2cc(CNCCF)sc2s1	81.9%	0.702	6.4	2.7 nM	1.98 nM	
NS(=O)(=O)c1cc2cc(C(=O)N(CCO)CCO)sc2s1				6.6 nM	9 nM	
COCCN(CCNC(=O)c1cc2cc(S(N)(=O)=O)sc2s1)CCOC.Cl	87.5%			2.5 nM		
COCCOCCCNCc1cc2cc(S(N)(=O)=O)sc2s1.Cl	87.5%	-0.137	7.4	6.5 nM		
O=Cc1cc2ccsc2s1						IOP (Oryctolagus cuniculus [6]): -1.3 mmHg; IOP (Oryctolagus cuniculus [7]): -1.6 mmHg
COCCN(CCOC)Cc1cc2sc(S(N)(=O)=O)cc2s1.Cl	41.4%	1.56	5.48	2.5 nM	0.95 nM	
NS(=O)(=O)c1cc2cc(CNC(CO)CO)sc2s1			6.95	8.4 nM		
CS(=O)(=O)CCNCc1cc2cc(S(N)(=O)=O)sc2s1.Cl	56.8%	-0.26	5.2			Ki (Carbonic anhydrase 2 [8]): 4.8 nM; IC50 (Carbonic anhydrase 2 [9]): 4.5 nM
NS(=O)(=O)c1cc2cc(CN3CC[S+]([O-])CC3)sc2s1		0.111	4.23	4 nM	3.4 nM	
COC(=O)CSc1sccc1C1OCCO1						IOP (Oryctolagus cuniculus [5]): -3.9 mmHg and -4.8 mmHg; IOP (Oryctolagus cuniculus [6]): -1.4 mmHg; IOP (Oryctolagus cuniculus [12]): -2.1 mmHg; IOP (Oryctolagus cuniculus [7]): -1.6 mmHg
C[S+]([O-])CCNCc1cc2cc(S(N)(=O)=O)sc2s1.Cl (centres undefined)	67.5%	-0.444	5.58	8.4 nM	5.5 nM	
CN(C)CCNC(=O)c1cc2cc(S(N)(=O)=O)sc2s1.Cl	97%	-0.398	7.48	8.8 nM	11 nM	
CC(C)CNCc1cc2cc(S(N)(=O)=O)sc2s1		0.924	7.9	2.5 nM	4.4 nM	
COCCOCCN(CCOC)C(Cc1ccc(F)cc1)c1cc2cc(S(N)(=O)=O)sc2s1 (centres undefined)				1.15 nM	6.54 nM	
